The values that follow come from patent US10537100B2, “Substituted methylenedioxybenzyl compounds and their use as synergists” (Endura SPA, priority 2015, dated 2020).

Marks after values point to notes of the source that are not given here.

Assay type in all cases: in vivo
For series [1], the system named is Myzus persicae clone highly resistant to insecticide. The series is described as follows: Contact test on treated plant (pea seedling dip), synergist with neonicotinoid. The note with it: synergist 1 g/L, mortality assessed at 48 hours, Abbott's formula. The protocol:
Laboratory bred Myzus persicae clone highly resistant to insecticide, derived from a field collected population after control failure, mixed age apterous parthenogenetic females adults, were assayed for the test.
Four (4) different commercially available formulated insecticides were used and diluted as follow: • imidacloprid: 1000 mL of test solution was prepared diluting in water 20 μL of commercial formulation, containing 200 g/L of a.i., equivalent to 0.004 g of imidacloprid per liter of insecticidal solution; • thiacloprid: 1000 mL of test solution was prepared diluting in water 24 μL of commercial formulation containing 480 g/L of a.i, equivalent to 0.012 g of thiacloprid per liter of insecticidal solution;
The compounds of Example 1 and Example 2 were formulated in the form of emulsified concentrate (EC).
The following amount of the EC formulations were added to the above described insecticidal solution of insecticide to have a final concentration of synergist equal to 1 g/L:
20 mL of test formulations were used to wet by dipping for 5″ a small pea seedling (1-1.5 cm long). Seedlings were left at room temperature in a fume hood and allowed to dry for 15″. After drying 10-15 apterous parthenogenetic females were moved to the seedling and allowed to settle. Mortality produced by pyrethroids was assessed 24 hours later. Mortality produced by neonicotinoids was assessed 48 hours later.
Three replicates were executed each composed by 2 subreplicates (seedlings) and 60-90 specimens were used per test formulation.
In parallel with the test, the mortality of aphids in an untreated control replicate (seedlings dipped in water) was determined using the same conditions and methods.
The efficacy was calculated according the Abbott's formula: […]

Another series concerns Musca domestica. The experiment in a line: Contact test on treated glass surfaces, synergist with cypermethrin. The protocol:
Laboratory bred Musca domestica species, 4-5 days old mixed sex imagoes derived from a field collected strain were assayed for the test. 1000 ml of test solutions were prepared diluting in water 6.06 grams of cypermethrin commercial formulation, equivalent to 0.224 g of cypermethrin per liter of insecticidal solution and a suitable amount of synergist such as to have a ratio between cypermethryn and synergists=1:13. The synergists were formulated in the form of emulsified concentrate (EC). The following amount of the formulations of synergist EC were added to the above described insecticidal solution of cypermethrin.
3.83 g of EC formulation containing 77.1% (w/w) of the compound of Example 2 (5-n-butyl-6-((prop-2-ynyloxy)methyl)benzo[d][1,3]dioxole)
3.57 g of EC formulation containing 83% (w/w) of the comparison compound 5-(but-2-ynyloxymethyl)-6-n-propyl-benzo[1,3]dioxole (EN126) corresponding to 2.95 g of the compound of the invention and of the comparison product per liter of test formulation
1 ml of each test formulation was applied to each individual grass surface of 100 cm^2 by means of a hand held pump sprayer on a scale measuring by 2 decimal precision, being the acceptable limit of divergence: +/−10%. The treated glass surfaces were left at room temperature for 24 hours after treatment and prior to be used. 40 mixed sex Musca domestica imagoes (20 males and 20 females) were selected and placed into a 500 cm^3 glass cylinders covered with an untreated glass surface until the start of the study. Five replicates were executed, altogether 200 houseflies (100 males and 100 females) were used per test formulation. At the beginning of the test, the untreated glass covering the glass cylinder was replaced with a glass surface treated with the test formulation. The exposure time was 30 minutes. After this period of time, the treated glass surfaces were removed and replaced with untreated ones. During the test water and food (water/sugar solution) were provided to the test insect inside the glass cylinders
In parallel with the test, the mortality of flies in an untreated control replicate was determined using the same conditions and methods. Throughout the control test, non-treated glass surfaces covered the glass cylinders. The maximum mortality rate allowed within the control group to consider the test representative was 10% after 24 hours. If above this value, the test was not considered representative and was repeated. During the trials, no deviance has been noted.
The test conditions were as follows: • temperature: 23-25° C. • relative humidity: min. 60% • light regime: 12 hrs dark/12 hrs natural illumination.
The reading intervals of the number of knocked down flies were: 10-20-30-40-50-60-90-120-180 minutes. Mortality was determined after 24 hours.
The efficacy was calculated according the following formula

For another series, the system named is Blattella germanica. The series is described as follows: Contact test on treated glass vials, synergist with cypermethrin. The note with it: cypermethrin 120 μg/mL, synergist 1.0 g/L; for knock down: average of 4 repetitions. The protocol:
Laboratory bred B. germanica species, mixed ages (pre-immaginal and imagoes) and mixed sex were assayed for the test.
An insecticide stock solution was prepared with 150 μL of cypermethrin commercial formulation and diluted to 15 μL/mL with technical acetone to a final volume of 10 mL. The solution contained 450 μg/mL of cypermethrin per liter of insecticidal solution
Stock solution of the compounds of Example 1 and Example 2 were prepared dissolving around 10 mg of EC formulations containing compounds of the Example 1 and Example 2 in technical acetone to have a final concentration of 1.365 μg/mL.
Stock solution (1650 μL) was diluted to 2250 μL with acetone or with stock of insecticide in acetone to have respectively a final concentration of 1 g/L of synergist (as active ingredient) or 0.12 g/L of cypermethrin+1 g/L of the compounds of Example 1 and Example 2. Insecticide alone was prepared adding 600 μL of stock solution to 1650 μL of acetone.
Glass vials (internal surface 35 cm^2) were treated with 350 μL of insecticide solution and allowed to dry in a fume hood on a vial rotator and used as soon as the acetone was fully evaporated.
B. germanica specimens were introduced singly in vials. 20 specimens were tested for each combination of product. The exposure time to product residues was 30 minutes. After this duration the specimens were transferred to an untreated vial ad provided with food and water.
In parallel within the test, a control study has been set up with the same conditions and methods using acetone only treated vials.
The test conditions were as follows: • temperature: 22-24° C. during knock down evaluation (t: 0-30′); 26° C. during mortality assessment (t: 24 h) • relative humidity: min. 60% • light regime: 8 hrs dark/16 hrs natural illumination.
The reading intervals of the number of knocked down and the number of dead insects were: 5-10-15-20-25-30 minutes. A final reading was done 24 hours after the starting of the exposure.
The calculation model of efficacy is according to Abbott's formula (Abbott W S (1925) A method for computing the effectiveness of an insecticide. J. Econ. Entomol. 18: 265-267):
The results are reported in the following Table 5 and represent an average of 4 repetitions.

On to `O=[N+]([O-])NC1=NCCN1Cc1ccc(Cl)nc1` [Imidacloprid, imidacloprid, reference compound], for which, in series [1] (Imidacloprid (0.004 g per liter)), the “Efficacy of the tested compounds” value is reported as 14.2.

In the case of `N#C/N=C1\SCCN1Cc1ccc(Cl)nc1` [thiacloprid, reference compound], the “Efficacy of the tested compounds” value in series [1] (thiacloprid (0.012 g per liter)) is 36.242.

For `CC1(C)C(C=C(Cl)Cl)C1C(=O)OC(C#N)c1cccc(Oc2ccccc2)c1` (centres unmarked) [Cypermethrin, cypermethrin], the mortality by % in the series with Musca domestica (24 h, 30 min exposure, cypermethrin formulation 6.06 g/l (0.224 g/l a.i.), cypermethrin:synergist 1:13) was 61%. Besides, in the series with Musca domestica (calculated from 24 h mortality against untreated control), the Efficacy % is on record as 58.95%. The “knock down by %” value in the series on Musca domestica (reading at 10′, 30 min exposure, cypermethrin formulation 6.06 g/l (0.224 g/l a.i.), cypermethrin:synergist 1:13) is recorded as 6* %; in the series with Musca domestica (reading at 20′, 30 min exposure, cypermethrin formulation 6.06 g/l (0.224 g/l a.i.), cypermethrin:synergist 1:13), 46%; in the series on Musca domestica (reading at 30′, 30 min exposure, cypermethrin formulation 6.06 g/l (0.224 g/l a.i.), cypermethrin:synergist 1:13) it was 68%; in the series with Musca domestica (reading at 40′, 30 min exposure, cypermethrin formulation 6.06 g/l (0.224 g/l a.i.), cypermethrin:synergist 1:13) it was 83%; in the series on Musca domestica (reading at 50′, 30 min exposure, cypermethrin formulation 6.06 g/l (0.224 g/l a.i.), cypermethrin:synergist 1:13), 85%; in the series on Musca domestica (reading at 60′, 30 min exposure, cypermethrin formulation 6.06 g/l (0.224 g/l a.i.), cypermethrin:synergist 1:13) it was 85%. In addition, the “knock down by %” value in the series with Musca domestica (reading at 90′, 30 min exposure, cypermethrin formulation 6.06 g/l (0.224 g/l a.i.), cypermethrin:synergist 1:13) amounted to 82%; in the series on Musca domestica (reading at 120′, 30 min exposure, cypermethrin formulation 6.06 g/l (0.224 g/l a.i.), cypermethrin:synergist 1:13) it was 76%; in the series with Musca domestica (reading at 180′, 30 min exposure, cypermethrin formulation 6.06 g/l (0.224 g/l a.i.), cypermethrin:synergist 1:13), 73%. Further, the mortality at 120 µg/mL in the series with Blattella germanica (Blattella germanica, 24 h after start of 30 min exposure, Abbott's formula) was determined as 22.9%. In addition, the knock down is listed as 0 with Blattella germanica (reading at 5′); 6.7 in the series on Blattella germanica (reading at 10′); 20 in the series with Blattella germanica (reading at 15′); 40 in the series on Blattella germanica (reading at 20′); 56.7 in the series with Blattella germanica (reading at 25′); 60 in the series with Blattella germanica (reading at 30′).
